# Test results: patent publication US9179678B2, “Substituted [1,2,4]triazoles and substituted tetrazoles as herbicides” (SYNGENTA LIMITED, priority 2012, dated 2015)
# System: Solanum nigrum (SOLNI)
# Assay: Post-emergence glasshouse herbicide test
# Assay type: in vivo
# Conditions: POST Application, 1000 g/h, after 13 days
# Procedure: (§1) Seeds of a variety of test species are sown in standard soil in pots (Alopecurus myosuroides (ALOMY), Setaria faberi (SETFA), Echinochloa crus-galli (ECHCG), Solanum nigrum (SOLNI), Amaranthus retoflexus (AMARE), Ipomoea hederacea (IPOHE)). After cultivation for one day (pre-emergence) or after 8 days cultivation (post-emergence) under controlled conditions in a glasshouse (at 24/16° C., day/night; 14 hours light; 65% humidity), the plants are sprayed with an aqueous spray solution derived from the formulation of the technical active ingredient in acetone/water (50:50) solution containing 0.5% Tween 20 (polyoxyethelyene sorbitan monolaurate, CAS RN 9005-64-5). Compounds ae applied at 1000 g/h. The test plants are then grown in a glasshouse under controlled conditions in a glasshouse (at 24/16° C., day/night; 14 hours light; 65% humidity) and watered twice daily. After 13 days for pre and post-emergence, the test is evaluated for the percentage damage caused to the plant. The biological activities are shown in the following table on a five point scale (5=80-100%; 4=60-79%; 3=40-59%; 2=20-39%; 1=0-19%).
row,Compound,"percentage damage caused to the plant, SOLNI"
1,Cn1nnnc1NC(=O)c1nc2ccccc2n(-c2ccc(C(F)(F)F)c(Cl)c2)c1=O [Compound 5.040],5 (5=80-100%)
2,Cc1nc2c(cc1F)cc(C(=O)Nc1nnnn1C)c(=O)n2-c1ccsc1 [Compound 6.002],5 (5=80-100%)
3,Cn1nnnc1NC(=O)c1nc2ccccc2n(-c2cccc(C#N)c2)c1=O [Compound 5.021],5 (5=80-100%)
4,CCn1c(=O)c(C(=O)Nc2nnnn2C)cc2cnccc21 [Compound 2.003],3 (3=40-59%)
5,Cn1nnnc1NC(=O)c1nc2ccccc2n(-c2ccccc2)c1=O [Compound 5.004],5 (5=80-100%)
6,Cn1nnnc1NC(=O)c1nc2cc(C(F)(F)F)ccc2n(C)c1=O [Compound 3.001],4 (4=60-79%)

# System: Amaranthus retoflexus (AMARE)
# Assay: Post-emergence glasshouse herbicide test
# Assay type: in vivo
# Conditions: POST Application, 1000 g/h, after 13 days
# Procedure: as §1
row,Compound,"percentage damage caused to the plant, AMARE"
1,Cn1nnnc1NC(=O)c1nc2ccccc2n(-c2ccc(C(F)(F)F)c(Cl)c2)c1=O [Compound 5.040],5 (5=80-100%)
2,Cc1nc2c(cc1F)cc(C(=O)Nc1nnnn1C)c(=O)n2-c1ccsc1 [Compound 6.002],5 (5=80-100%)
3,Cn1nnnc1NC(=O)c1nc2ccccc2n(-c2cccc(C#N)c2)c1=O [Compound 5.021],5 (5=80-100%)
4,CCn1c(=O)c(C(=O)Nc2nnnn2C)cc2cnccc21 [Compound 2.003],3 (3=40-59%)
5,Cn1nnnc1NC(=O)c1nc2ccccc2n(-c2ccccc2)c1=O [Compound 5.004],5 (5=80-100%)
6,Cn1nnnc1NC(=O)c1nc2cc(C(F)(F)F)ccc2n(C)c1=O [Compound 3.001],4 (4=60-79%)

# System: Echinochloa crus-galli (ECHCG)
# Assay: Post-emergence glasshouse herbicide test
# Assay type: in vivo
# Conditions: POST Application, 1000 g/h, after 13 days
# Procedure: as §1
row,Compound,"percentage damage caused to the plant, ECHCG"
1,Cn1nnnc1NC(=O)c1nc2ccccc2n(-c2ccc(C(F)(F)F)c(Cl)c2)c1=O [Compound 5.040],2 (2=20-39%)
2,Cc1nc2c(cc1F)cc(C(=O)Nc1nnnn1C)c(=O)n2-c1ccsc1 [Compound 6.002],4 (4=60-79%)
3,Cn1nnnc1NC(=O)c1nc2ccccc2n(-c2cccc(C#N)c2)c1=O [Compound 5.021],2 (2=20-39%)
4,CCn1c(=O)c(C(=O)Nc2nnnn2C)cc2cnccc21 [Compound 2.003],1 (1=0-19%)
5,Cn1nnnc1NC(=O)c1nc2ccccc2n(-c2ccccc2)c1=O [Compound 5.004],3 (3=40-59%)
6,Cn1nnnc1NC(=O)c1nc2cc(C(F)(F)F)ccc2n(C)c1=O [Compound 3.001],2 (2=20-39%)

# System: Alopecurus myosuroides (ALOMY)
# Assay: Post-emergence glasshouse herbicide test
# Assay type: in vivo
# Conditions: POST Application, 1000 g/h, after 13 days
# Procedure: as §1
row,Compound,"percentage damage caused to the plant, ALOMY"
1,Cn1nnnc1NC(=O)c1nc2ccccc2n(-c2ccc(C(F)(F)F)c(Cl)c2)c1=O [Compound 5.040],2 (2=20-39%)
2,Cc1nc2c(cc1F)cc(C(=O)Nc1nnnn1C)c(=O)n2-c1ccsc1 [Compound 6.002],1 (1=0-19%)
3,Cn1nnnc1NC(=O)c1nc2ccccc2n(-c2cccc(C#N)c2)c1=O [Compound 5.021],4 (4=60-79%)
4,CCn1c(=O)c(C(=O)Nc2nnnn2C)cc2cnccc21 [Compound 2.003],1 (1=0-19%)
5,Cn1nnnc1NC(=O)c1nc2ccccc2n(-c2ccccc2)c1=O [Compound 5.004],2 (2=20-39%)
6,Cn1nnnc1NC(=O)c1nc2cc(C(F)(F)F)ccc2n(C)c1=O [Compound 3.001],1 (1=0-19%)

# System: Ipomoea hederacea (IPOHE)
# Assay: Post-emergence glasshouse herbicide test
# Assay type: in vivo
# Conditions: POST Application, 1000 g/h, after 13 days
# Procedure: as §1
row,Compound,"percentage damage caused to the plant, IPOHE"
1,Cn1nnnc1NC(=O)c1nc2ccccc2n(-c2ccc(C(F)(F)F)c(Cl)c2)c1=O [Compound 5.040],5 (5=80-100%)
2,Cc1nc2c(cc1F)cc(C(=O)Nc1nnnn1C)c(=O)n2-c1ccsc1 [Compound 6.002],5 (5=80-100%)
3,Cn1nnnc1NC(=O)c1nc2ccccc2n(-c2cccc(C#N)c2)c1=O [Compound 5.021],5 (5=80-100%)
4,CCn1c(=O)c(C(=O)Nc2nnnn2C)cc2cnccc21 [Compound 2.003],2 (2=20-39%)
5,Cn1nnnc1NC(=O)c1nc2ccccc2n(-c2ccccc2)c1=O [Compound 5.004],5 (5=80-100%)
6,Cn1nnnc1NC(=O)c1nc2cc(C(F)(F)F)ccc2n(C)c1=O [Compound 3.001],3 (3=40-59%)

# System: Setaria faberi (SETFA)
# Assay: Post-emergence glasshouse herbicide test
# Assay type: in vivo
# Conditions: POST Application, 1000 g/h, after 13 days
# Procedure: as §1, with “Compounds ae applied at 1000 g/h.” left out
row,Compound,"percentage damage caused to the plant, SETFA"
1,Cn1nnnc1NC(=O)c1nc2ccccc2n(-c2ccc(C(F)(F)F)c(Cl)c2)c1=O [Compound 5.040],2 (2=20-39%)
2,Cc1nc2c(cc1F)cc(C(=O)Nc1nnnn1C)c(=O)n2-c1ccsc1 [Compound 6.002],2 (2=20-39%)
3,Cn1nnnc1NC(=O)c1nc2ccccc2n(-c2cccc(C#N)c2)c1=O [Compound 5.021],5 (5=80-100%)
4,CCn1c(=O)c(C(=O)Nc2nnnn2C)cc2cnccc21 [Compound 2.003],1 (1=0-19%)
5,Cn1nnnc1NC(=O)c1nc2ccccc2n(-c2ccccc2)c1=O [Compound 5.004],2 (2=20-39%)
6,Cn1nnnc1NC(=O)c1nc2cc(C(F)(F)F)ccc2n(C)c1=O [Compound 3.001],2 (2=20-39%)

# System: Solanum nigrum (SOLNI)
# Assay: Pre-emergence glasshouse herbicide test
# Assay type: in vivo
# Conditions: PRE Application, 1000 g/h, after 13 days
# Procedure: as §1
row,Compound,"percentage damage caused to the plant, SOLNI"
1,Cn1nnnc1NC(=O)c1nc2ccccc2n(-c2ccc(C(F)(F)F)c(Cl)c2)c1=O [Compound 5.040],5 (5=80-100%)
2,Cc1nc2c(cc1F)cc(C(=O)Nc1nnnn1C)c(=O)n2-c1ccsc1 [Compound 6.002],4 (4=60-79%)
3,Cn1nnnc1NC(=O)c1nc2ccccc2n(-c2cccc(C#N)c2)c1=O [Compound 5.021],5 (5=80-100%)
4,CCn1c(=O)c(C(=O)Nc2nnnn2C)cc2cnccc21 [Compound 2.003],1 (1=0-19%)
5,Cn1nnnc1NC(=O)c1nc2ccccc2n(-c2ccccc2)c1=O [Compound 5.004],5 (5=80-100%)
6,Cn1nnnc1NC(=O)c1nc2cc(C(F)(F)F)ccc2n(C)c1=O [Compound 3.001],3 (3=40-59%)

# System: Amaranthus retoflexus (AMARE)
# Assay: Pre-emergence glasshouse herbicide test
# Assay type: in vivo
# Conditions: PRE Application, 1000 g/h, after 13 days
# Procedure: as §1
row,Compound,"percentage damage caused to the plant, AMARE"
1,Cn1nnnc1NC(=O)c1nc2ccccc2n(-c2ccc(C(F)(F)F)c(Cl)c2)c1=O [Compound 5.040],5 (5=80-100%)
2,Cc1nc2c(cc1F)cc(C(=O)Nc1nnnn1C)c(=O)n2-c1ccsc1 [Compound 6.002],5 (5=80-100%)
3,Cn1nnnc1NC(=O)c1nc2ccccc2n(-c2cccc(C#N)c2)c1=O [Compound 5.021],5 (5=80-100%)
4,CCn1c(=O)c(C(=O)Nc2nnnn2C)cc2cnccc21 [Compound 2.003],1 (1=0-19%)
5,Cn1nnnc1NC(=O)c1nc2ccccc2n(-c2ccccc2)c1=O [Compound 5.004],5 (5=80-100%)
6,Cn1nnnc1NC(=O)c1nc2cc(C(F)(F)F)ccc2n(C)c1=O [Compound 3.001],2 (2=20-39%)

# System: Echinochloa crus-galli (ECHCG)
# Assay: Pre-emergence glasshouse herbicide test
# Assay type: in vivo
# Conditions: PRE Application, 1000 g/h, after 13 days
# Procedure: as §1
row,Compound,"percentage damage caused to the plant, ECHCG"
1,Cn1nnnc1NC(=O)c1nc2ccccc2n(-c2ccc(C(F)(F)F)c(Cl)c2)c1=O [Compound 5.040],1 (1=0-19%)
2,Cc1nc2c(cc1F)cc(C(=O)Nc1nnnn1C)c(=O)n2-c1ccsc1 [Compound 6.002],1 (1=0-19%)
3,Cn1nnnc1NC(=O)c1nc2ccccc2n(-c2cccc(C#N)c2)c1=O [Compound 5.021],5 (5=80-100%)
4,CCn1c(=O)c(C(=O)Nc2nnnn2C)cc2cnccc21 [Compound 2.003],1 (1=0-19%)
5,Cn1nnnc1NC(=O)c1nc2ccccc2n(-c2ccccc2)c1=O [Compound 5.004],5 (5=80-100%)
6,Cn1nnnc1NC(=O)c1nc2cc(C(F)(F)F)ccc2n(C)c1=O [Compound 3.001],2 (2=20-39%)

# System: Alopecurus myosuroides (ALOMY)
# Assay: Pre-emergence glasshouse herbicide test
# Assay type: in vivo
# Conditions: PRE Application, 1000 g/h, after 13 days
# Procedure: as §1
row,Compound,"percentage damage caused to the plant, ALOMY"
1,Cn1nnnc1NC(=O)c1nc2ccccc2n(-c2ccc(C(F)(F)F)c(Cl)c2)c1=O [Compound 5.040],1 (1=0-19%)
2,Cc1nc2c(cc1F)cc(C(=O)Nc1nnnn1C)c(=O)n2-c1ccsc1 [Compound 6.002],1 (1=0-19%)
3,Cn1nnnc1NC(=O)c1nc2ccccc2n(-c2cccc(C#N)c2)c1=O [Compound 5.021],5 (5=80-100%)
4,CCn1c(=O)c(C(=O)Nc2nnnn2C)cc2cnccc21 [Compound 2.003],1 (1=0-19%)
5,Cn1nnnc1NC(=O)c1nc2ccccc2n(-c2ccccc2)c1=O [Compound 5.004],3 (3=40-59%)
6,Cn1nnnc1NC(=O)c1nc2cc(C(F)(F)F)ccc2n(C)c1=O [Compound 3.001],1 (1=0-19%)

# System: Ipomoea hederacea (IPOHE)
# Assay: Pre-emergence glasshouse herbicide test
# Assay type: in vivo
# Conditions: PRE Application, 1000 g/h, after 13 days
# Procedure: as §1
row,Compound,"percentage damage caused to the plant, IPOHE"
1,Cn1nnnc1NC(=O)c1nc2ccccc2n(-c2ccc(C(F)(F)F)c(Cl)c2)c1=O [Compound 5.040],3 (3=40-59%)
2,Cc1nc2c(cc1F)cc(C(=O)Nc1nnnn1C)c(=O)n2-c1ccsc1 [Compound 6.002],2 (2=20-39%)
3,Cn1nnnc1NC(=O)c1nc2ccccc2n(-c2cccc(C#N)c2)c1=O [Compound 5.021],5 (5=80-100%)
4,CCn1c(=O)c(C(=O)Nc2nnnn2C)cc2cnccc21 [Compound 2.003],1 (1=0-19%)
5,Cn1nnnc1NC(=O)c1nc2ccccc2n(-c2ccccc2)c1=O [Compound 5.004],5 (5=80-100%)
6,Cn1nnnc1NC(=O)c1nc2cc(C(F)(F)F)ccc2n(C)c1=O [Compound 3.001],1 (1=0-19%)

# System: Setaria faberi (SETFA)
# Assay: Pre-emergence glasshouse herbicide test
# Assay type: in vivo
# Conditions: PRE Application, 1000 g/h, after 13 days
# Procedure: as §1
row,Compound,"percentage damage caused to the plant, SETFA"
1,Cn1nnnc1NC(=O)c1nc2ccccc2n(-c2ccc(C(F)(F)F)c(Cl)c2)c1=O [Compound 5.040],1 (1=0-19%)
2,Cc1nc2c(cc1F)cc(C(=O)Nc1nnnn1C)c(=O)n2-c1ccsc1 [Compound 6.002],1 (1=0-19%)
3,Cn1nnnc1NC(=O)c1nc2ccccc2n(-c2cccc(C#N)c2)c1=O [Compound 5.021],5 (5=80-100%)
4,CCn1c(=O)c(C(=O)Nc2nnnn2C)cc2cnccc21 [Compound 2.003],1 (1=0-19%)
5,Cn1nnnc1NC(=O)c1nc2ccccc2n(-c2ccccc2)c1=O [Compound 5.004],4 (4=60-79%)
6,Cn1nnnc1NC(=O)c1nc2cc(C(F)(F)F)ccc2n(C)c1=O [Compound 3.001],1 (1=0-19%)
